These results are taken from patent US20260355318A1, “MOLECULAR MACHINES FOR TREATMENT OF CANCER, FUNGAL INFECTIONS, OR BACTERIAL INFECTIONS” (priority 2022, published 2026).

Each structure is given as a SMILES string. pIC50: −log10 of the molar value.

A short description of data set [1]: Estimated rotation rate after light activation. Particulars: based on known motors with similar core skeletons.
For data set [2], the system named is S. aureus. Nature of the data set: MIC, S. aureus. In kind it is cell-based, Staphylococcus aureus. Particulars: for MIC of MM: S. aureus; for MIC: Staphylococcus aureus, read-out: MIC of MM. A digest of the protocol: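 Cell suspensions were exposed to compound at 0.3125-40 μM for 30 min in the dark, with agitation, at 30 or 37 °C depending on strain. Each sample was then irradiated with 405 nm light at 146 mW cm^−2 for 5 min (43.8 J cm^−2), inoculated into MHB and incubated overnight. MIC was read as the lowest concentration without visible growth, alongside non-irradiated controls.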

In the next data set the test system is B. cepacia. Description: MIC, B. cepacia. The format is cell-based. Particulars: Burkholderia cepacia, read-out: MIC of MM. Here is the method: (§1) The appropriate volume of an MM stock at 8 mM necessary to achieve a concentration ranging from 0.3125 to 40 μM was pipetted into a 2 mL microcentrifuge tube to which 1 mL of cell suspension prepared as previously described was added. Corresponding negative controls (DMSO only) were prepared in the same way. The mixture was gently mixed by pipetting and incubated in the dark at 30 or 37 ° C, depending on the strain, for 30 min with agitation (220 rpm). Afterward, MM- or DMSO-treated cells were dispensed in one well of a 24-well plate positioned in the center of the light beam (405 nm LED Light, Prizmatix, UHP—F-5-405) placed at the appropriate distance necessary to achieve the desired light intensity of 304 mW cm-2, 146 mW cm2 or 87 mW cm2, as measured with a handheld digital power meter console coupled to an S415C thermal power sensor head (Thorlabs, Newton, MA, USA). The temperature during irradiation was monitored using a thermocouple probe (Model SC-TT-K-30-36-PP; Omega Engineering, Inc., Stanford, CT, USA). Samples were agitated during irradiation. Dark controls were prepared as previously described except that no irradiation was provided. […]

Another data set has as its system B. cereus. Nature of the data set: MIC, B. cereus. In kind it is cell-based. The following applies: Bacillus cereus, read-out: MIC of MM. The protocol: as §1
In the next data set the test system is E. coli. Nature of the data set: Time-kill / light-dose experiments, E. coli. The format is cell-based, Escherichia coli. Particulars: E. coli; for light dose for complete eradication: highest concentration of MM (5 μM), 405 nm. The protocol:
(§2) Serial dilutions of irradiated cell suspensions were prepared in PBS. A volume of 10 AL of the appropriate serial dilutions was spot-plated onto LB agar plates. Following overnight incubation at 30 or 37 ° C, depending on the strain, bacterial viability was assessed as colony forming units (CFU) per mL. Results were expressed as log (N/NO) whereby N is the CFU mL^−1 at each irradiation time point and NO is the initial CFU mL^−1 of the corresponding sample. Only dilutions that yielded 10-100 colonies were counted.

The next data set concerns A. baumannii. Description: Time-kill / light-dose experiments, A. baumannii. The format is cell-based, Acinetobacter baumannii. The following applies: highest concentration of MM (5 μM), 405 nm. The protocol: as §2
The test system of a further data set is P. aeruginosa. Description: Time-kill / light-dose experiments, P. aeruginosa. The format is cell-based, Pseudomonas aeruginosa. Particulars: for light dose for complete eradication: 0.625 to 5 μM of MM, 405 nm; for time to reduce cell number to limit of detection: 2×MIC, 146 mW cm^−2 405 nm. The protocol:
as §2

Data set [3] relates to S. aureus. Description: Time-kill / light-dose experiments, S. aureus. In kind it is cell-based, Staphylococcus aureus. Particulars: 0.625 to 5 μM of MM, 405 nm. The protocol: as §2
Data set [4] concerns persister cells of E. coli. Nature of the data set: Persister eradication, E. coli. In kind it is cell-based, Escherichia coli. Particulars: 1×MIC, 405 nm. Here is the method: Persister cells of E. coli were prepared by adding ampicillin (100 μg mL^−1) to exponential-phase cells (OD600 of ≈0.8) followed by continuous agitation for another 3 b, as previously described (Keren et al., 2004). In the case of S. aureus, almost all stationary-phase are considered to be persistent (Keren et al., 2004). S. aureus cells were grown at 37 ° C and 220 rpm in LB broth to an OD600 of 0.3. Cells were then diluted 1:1000 in 25 mL LB and grown for 16 h at 37 ° C and 220 rpm in 250 mL flasks. […] At specified time points (0, 1, 2, 3, 4 and 5, 10 and 15 min), 50-μL aliquots were removed, serially diluted and spot-plated onto LB agar plates to determine colony-forming units per mL (CFU mL^−1). Only dilutions that yielded 10-100 colonies were counted. Results were expressed as log (N/NO) whereby N is the CFU mL^−1 at each irradiation time point and NO is the initial CFU mL^−1 of the corresponding sample. […].

Data set [5] concerns human embryonic kidney cells (HEK). Description: Toxicity to HEK cells (CellTiter-Glo). In kind it is cell-based. The following applies: HEK293, 5 min, 405 nm light 146 mW cm^−2, 5 min, read-out: IC50 (HEK viability). Here is the method:
Biocompatibility of MM with primary NHDF and HEK293T cells was assessed using the CellTiter-Glo® Luminescent Cell Viability Assay (Promega), per the manufacturer's instructions. The MM concentrations that reduced cell viability by 50% (IC50) were identified and the therapeutic index was calculated as the ratio between the IC50 and the MIC at a light intensity of 146 mW cm^−2.

By MIC is commonly meant the lowest concentration found to suppress growth. One may read the pIC50 as the negative decadic logarithm of the IC50, by convention in mol/L. With `C[C@@H]1Cc2ccc3ccccc3c2/C1=C1\c2ccccc2Sc2cc(NCCN(C)C)ccc21` [MM 1, N^1N^1-dimethyl-N^2-(9-(2-methyl-2,3-dihydro-1H-cyclopenta[a]naphthalen-1-ylidene)-9H-thioxanthen-3-yl) ethane-1,2-diamine], the “estimated rotation rate after light activation” value in data set [1] is on record as 3 MHz. In the data set with S. aureus [2] (405 nm light), the “MIC of MM” value was found to be 0.156 µM. The MIC in the data set on S. aureus [2] worked out at 0.156 µM; with B. cepacia, 10 µM; with B. cereus it was 10 µM. Moreover, the “light dose for complete eradication” value in the data set with E. coli is “at least 40 J cm^−2”; with A. baumannii, “at least 40 J cm^−2”; with P. aeruginosa, 16 J cm^−2; in the data set with S. aureus [3], 16 J cm^−2. In the data set with P. aeruginosa, the “time to reduce cell number to limit of detection” value was found to be 3 min. The “time to reduce persister cells to limit of detection” value in data set [4] came out at 10 min. The negative-log IC50 (pIC50) in [5] is 5.30.

As for `C[C@@H]1Cc2ccc3ccccc3c2/C1=C1\c2ccccc2Sc2cc(NCCN)ccc21` (racemic) [MM 6, N^1-(9-(2-methyl-2,3-dihydro-1H-cyclopenta[a]naphthalen-1-ylidene)-9H-thioxanthen-3-yl)ethane-1,2-diamine], the “estimated rotation rate after light activation” value in data set [1] is 3 MHz. In addition, in the data set with S. aureus [2] (Table 9, 405 nm light 43.8 J cm^−2), the “MIC of MM” value was 0.078. The MIC worked out at 0.078 µM with S. aureus [2], 10 µM in the data set with B. cepacia and 10 µM in the data set with B. cereus. Further, the “time to reduce cell number to limit of detection” value with E. coli (2×MIC, 146 mW cm^−2 405 nm) stood at 4 min; in the data set with P. aeruginosa, 10 min. Also, the “light dose for complete eradication” value in the data set on E. coli is recorded as “at least 40 J cm^−2”; with A. baumannii, “at least 40 J cm^−2”; with P. aeruginosa it was 16 J cm^−2; in the data set with S. aureus [3], 16 J cm^−2. Also, the “time to reduce persister cells to limit of detection” value in data set [4] stood at 5 min. Also, the pIC50 in data set [5] was 5.30.
